One series addresses USP1/UAF1 enzyme (Homo sapiens, UniProt O94782). Description: USP1/UAF1 deubiquitination assay (ubiquitin-rhodamine 110 substrate). In kind it is biochemical. Particulars: read-out: USP1 IC50 (Ub-Rho). A digest of the protocol:
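Cleavage of 150 nM ubiquitin-rhodamine 110 by 0.05 nM USP1/UAF1 was followed as fluorescence (Ex480/Em540, kinetic, 30 min) in Tris-HCl pH 7.8 buffer with EDTA, BSA, DTT and Tween-20. Compounds, top 10 μM, were preincubated with enzyme 10 min; % inhibition against no-enzyme and DMSO wells gave four-parameter IC50s.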

Series [1] relates to Ub-PCNA levels in the nucleus of ES2 cells (USP1 activity). The experiment in a line: ES2 Ub-PCNA immunofluorescence (IF) assay. In kind it is cell-based. Particulars: Homo sapiens, ES-2; ES2 cells, 3 hours, Ub-PCNA immunofluorescence; read-out: USP1 IC50 (Ub-PCNA). The gist of the method: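 AC50 derived from percent Ub-PCNA-positive nuclei, positivity set by a 95% cutoff from untreated-well intensities. Readout by imaging immunofluorescence (anti-Ub-PCNA, DAPI nuclear mask) after methanol fixation. Compound exposure: 3 h at 37° C, 0.3% DMSO final, on cells plated overnight.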

A short description of series [2]: ADME solubility determination in PBS at pH 2.0 and pH 7.4. In kind it is physicochemical. Particulars: phosphate buffered saline, 25 °C, thermodynamic from solid. A digest of the protocol: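 Solubility was read by LC-MS/MS on centrifuged supernatants, calibrated to a known-concentration standard and corrected for dilution. Compound, dried down from 10 mM DMSO stock, was equilibrated 24 h at 25° C with shaking in PBS at pH 2.0 or pH 7.4.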

Series [3] is described as follows: Liver microsomal metabolic stability, rat liver microsomes (RLM). As to conditions: rat, liver microsomes, t1/2 (min) in RLM, 1 μM compound, 1 mg/mL microsomes, NADPH.
Series [4] is described as follows: Liver microsomal metabolic stability, human liver microsomes (HLM). As to conditions: human, liver microsomes.
The mark [5] stands for this setting: pH 2, aqueous buffer, PBS pH 2.0, 25° C., read-out: Solubility at pH 2.0.
Setting [6] is: pH 7.4, aqueous buffer, PBS pH 7.4, 25° C., read-out: Solubility at pH 7.4.

Where two headings read alike, the source gives them in different places. Where only a bound is given, the exact number is not on record here.

Chain of USP1/UAF1 enzyme (O94782 whole entry): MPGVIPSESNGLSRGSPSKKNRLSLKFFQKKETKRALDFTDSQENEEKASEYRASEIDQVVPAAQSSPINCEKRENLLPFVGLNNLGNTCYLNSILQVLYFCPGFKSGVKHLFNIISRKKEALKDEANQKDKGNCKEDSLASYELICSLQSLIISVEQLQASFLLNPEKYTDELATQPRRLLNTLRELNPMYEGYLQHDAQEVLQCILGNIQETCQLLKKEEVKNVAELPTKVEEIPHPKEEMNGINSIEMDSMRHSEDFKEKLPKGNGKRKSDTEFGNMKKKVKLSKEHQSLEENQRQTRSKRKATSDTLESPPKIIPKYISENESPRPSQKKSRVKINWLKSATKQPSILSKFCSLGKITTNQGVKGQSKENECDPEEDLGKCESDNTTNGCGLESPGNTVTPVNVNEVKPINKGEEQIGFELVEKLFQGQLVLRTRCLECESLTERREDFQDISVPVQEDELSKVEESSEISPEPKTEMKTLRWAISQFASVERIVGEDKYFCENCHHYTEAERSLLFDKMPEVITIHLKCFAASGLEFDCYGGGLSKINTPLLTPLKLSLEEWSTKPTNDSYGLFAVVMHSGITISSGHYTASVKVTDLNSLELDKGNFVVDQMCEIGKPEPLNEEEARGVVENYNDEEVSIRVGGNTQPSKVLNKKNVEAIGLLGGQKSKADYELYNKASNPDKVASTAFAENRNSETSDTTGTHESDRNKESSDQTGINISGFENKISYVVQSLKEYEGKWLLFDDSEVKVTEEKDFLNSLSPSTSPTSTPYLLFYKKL
Chain of USP1/UAF1 enzyme (Q8TAF3 whole entry partner): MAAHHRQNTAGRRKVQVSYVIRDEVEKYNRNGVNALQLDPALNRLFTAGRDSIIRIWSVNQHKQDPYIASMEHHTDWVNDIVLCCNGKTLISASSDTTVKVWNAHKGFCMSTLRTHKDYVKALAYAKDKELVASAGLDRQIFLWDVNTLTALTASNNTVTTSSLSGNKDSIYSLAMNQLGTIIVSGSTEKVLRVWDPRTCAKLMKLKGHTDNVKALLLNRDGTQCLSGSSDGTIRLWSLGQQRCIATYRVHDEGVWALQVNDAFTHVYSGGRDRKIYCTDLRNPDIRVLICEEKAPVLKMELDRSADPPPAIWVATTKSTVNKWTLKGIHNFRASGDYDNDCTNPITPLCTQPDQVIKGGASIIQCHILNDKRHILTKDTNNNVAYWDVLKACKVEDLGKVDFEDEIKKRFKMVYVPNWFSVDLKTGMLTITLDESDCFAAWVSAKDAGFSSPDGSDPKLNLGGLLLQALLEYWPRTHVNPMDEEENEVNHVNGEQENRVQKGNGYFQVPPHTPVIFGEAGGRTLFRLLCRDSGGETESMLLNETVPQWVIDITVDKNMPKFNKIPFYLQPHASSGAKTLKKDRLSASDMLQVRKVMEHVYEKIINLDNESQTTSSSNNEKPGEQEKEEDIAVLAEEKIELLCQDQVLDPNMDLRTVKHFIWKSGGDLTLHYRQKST

In the case of `CC(C)n1cc(C(F)(F)F)nc1-c1ccc(CN2C(=O)CCn3nc(-c4c(Cl)cnn4C(C)C)cc32)cc1` [Example 91], the IC50 (on USP1/UAF1 enzyme; in series [1]) was below 100 nM throughout. For the same compound, the solubility at 24 h in series [2] (setting [5]) and in series [2] (setting [6]) was below 10 µM throughout. The half-life at 1 μM in series [3] and in series [4] was above 25 min in each case.
As for `COc1ncnc(C2CC2)c1-c1nc2n(n1)CCC(=O)N2[C@@H](C)c1ccc(-c2nc(C(F)(F)F)cn2C(C)C)cc1` [Example 188], the results for the IC50 (at USP1/UAF1 enzyme; in series [1]) were 100 to 500 nM and below 100 nM, respectively. Further, the solubility at 24 h in series [2] (setting [5]) and in series [2] (setting [6]) was at least 10 µM throughout. For the same compound, the half-life at 1 μM in series [3] and in series [4] was above 25 min throughout.
On to `CCn1cc(C(F)(F)F)nc1-c1ccc([C@@H](C)N2C(=O)CCn3nc(-c4c(Cl)cnn4C(C)C)nc32)cc1OC` [Example 180], for which the IC50 is below 100 nM on USP1/UAF1 enzyme and 100 to 500 nM in series [1]. Besides, the solubility at 24 h in series [2] (setting [5]) and in series [2] (setting [6]) was below 10 µM each time. In addition, the half-life at 1 μM in series [3] and in series [4] was below 25 min each time.
For the compound `CCn1cc(C(F)(F)F)nc1-c1ccc([C@H](C)n2c(=O)ccn3nc(-c4c(OC)ncnc4C4CC4)nc23)cc1` [Example 339, (S)-2-(4-cyclopropyl-6-methoxypyrimidin-5-yl)-4-(1-(4-(1-ethyl-4-(trifluoromethyl)-1H-imidazol-2-yl)phenyl)ethyl)-[1,2,4]triazolo[1,5-a]pyrimidin-5(4H)-one], the IC50 (on USP1/UAF1 enzyme; in series [1]) was below 100 nM in each case. The solubility at 24 h in series [2] (setting [5]) was at least 10 µM; in series [2] (setting [6]) it was below 10 µM. Besides, the values for the half-life at 1 μM in series [3] and in series [4] were above 25 min and below 25 min, respectively.
For the compound `COc1ncnc(C2CC2)c1-c1nn2c(c1C)N(Cc1ccc(-c3nc(C(F)(F)F)cn3C)cc1)C(=O)CC2` [Example 35, 2-(4-cyclopropyl-6-methoxypyrimidin-5-yl)-3-methyl-4-(4-(1-methyl-4-(trifluoromethyl)-1H-imidazol-2-yl)benzyl)-6,7-dihydropyrazolo[1,5-α]pyrimidin-5(4H)-one], the IC50 on USP1/UAF1 enzyme is 100 to 500 nM; in series [1], above 500 nM. Also, the solubility at 24 h in series [2] (setting [5]) and in series [2] (setting [6]) was below 10 µM throughout. The results for the half-life at 1 μM in series [3] and in series [4] were above 25 min and below 25 min, respectively.
Regarding `CCn1cc(C(F)(F)F)nc1-c1ccc(CN2C(=O)C(N(C)C)Cn3nc(-c4c(Cl)cnn4C(C)C)cc32)cc1` (stereo not drawn) [Example 235, 2-(4-chloro-1-isopropyl-1H-pyrazol-5-yl)-6-(dimethylamino)-4-(4-(1-ethyl-4-(trifluoromethyl)-1H-imidazol-2-yl)benzyl)-6,7-dihydropyrazolo[1,5-α]pyrimidin-5(4H)-one], the IC50 at USP1/UAF1 enzyme is below 100 nM; in series [1], 100 to 500 nM. Besides, the figures for the solubility at 24 h in series [2] (setting [5]) and in series [2] (setting [6]) were at least 10 µM and below 10 µM, respectively. In addition, the half-life at 1 μM in series [3] and in series [4] was below 25 min throughout.
As for `COc1ncnc(C2CC2)c1-c1nc2n(n1)CCC(=O)N2Cc1ccc(-c2nc(C(F)(F)F)cn2C(C)C)c(Cl)c1` [Example 172], the figures for the IC50 (on USP1/UAF1 enzyme; in series [1]) were below 100 nM and 100 to 500 nM, respectively. The solubility at 24 h in series [2] (setting [5]) and in series [2] (setting [6]) was at least 10 µM each time. The half-life at 1 μM in series [3] and in series [4] was above 25 min in each case.
Turning to `CCn1cc(C(F)(F)F)nc1-c1ccc(CN2C(=O)CCn3nc(-c4c(OC)ncnc4C4CC4)cc32)cc1` [Example 71, 2-(4-cyclopropyl-6-methoxypyrimidin-5-yl)-4-(4-(1-ethyl-4-(trifluoromethyl)-1H-imidazol-2-yl)benzyl)-6,7-dihydropyrazolo[1,5-α]pyrimidin-5(4H)-one], the IC50 (at USP1/UAF1 enzyme; in series [1]) was below 100 nM throughout. For the same compound, the solubility at 24 h in series [2] (setting [5]) and in series [2] (setting [6]) was below 10 µM throughout. Moreover, the half-life at 1 μM in series [3] and in series [4] was above 25 min in each case.
As to `Cc1cnn(C(C)C)c1-c1cc2n(n1)CCC(=O)N2Cc1ccc(-c2nc(C(F)(F)F)cn2C)cc1` [Example 6, 2-(1-isopropyl-4-methyl-1H-pyrazol-5-yl)-4-(4-(1-methyl-4-(trifluoromethyl)-1H-imidazol-2-yl)benzyl)-6,7-dihydropyrazolo[1,5-a]pyrimidin-5(4H)-one], the values for the IC50 (on USP1/UAF1 enzyme; in series [1]) were below 100 nM and above 500 nM, respectively. Also, the solubility at 24 h in series [2] (setting [5]) and in series [2] (setting [6]) was at least 10 µM in each case. For the same compound, the half-life at 1 μM in series [3] and in series [4] was below 25 min in each case.
Regarding `CCn1cc(C(F)(F)F)nc1-c1ccc(OC2CCCCn3nc(-c4c(Cl)cnn4C(C)C)cc32)cc1` (stereo not drawn) [Example 358, 2-(4-chloro-1-isopropyl-1H-pyrazol-5-yl)-4-(4-(1-ethyl-4-(trifluoromethyl)-1H-imidazol-2-yl)phenoxy)-5,6,7,8-tetrahydro-4H-pyrazolo[1,5-α]azepine], the IC50 (on USP1/UAF1 enzyme; in series [1]) was below 100 nM each time. For the same compound, the solubility at 24 h in series [2] (setting [5]) and in series [2] (setting [6]) was below 10 µM each time. Also, the results for the half-life at 1 μM in series [3] and in series [4] were below 25 min and above 25 min, respectively.
As for `CCn1cc(C(F)(F)F)nc1-c1ccc(CN2c3cc(-c4c(OC)ncnc4C4CC4)nn3CCC2C)cc1F` (stereo not drawn) [Example 49], the IC50 (on USP1/UAF1 enzyme; in series [1]) was below 100 nM in each case. Moreover, the solubility at 24 h in series [2] (setting [5]) is at least 10 µM; in series [2] (setting [6]), below 10 µM. Also, the half-life at 1 μM in series [3] and in series [4] was below 25 min each time.
For the compound `COc1ncnc(C2CC2)c1-c1cc2n(n1)CCCC2Nc1ccc(-c2nc(C(F)(F)F)cn2C(C)CF)cc1` (stereo not drawn) [Example 248, 2-(4-cyclopropyl-6-methoxypyrimidin-5-yl)-N-(4-(1-(1-fluoropropan-2-yl)-4-(trifluoromethyl)-1H-imidazol-2-yl)phenyl)-4,5,6,7-tetrahydropyrazolo[1,5-a]pyridin-4-amine], the IC50 (on USP1/UAF1 enzyme; in series [1]) was below 100 nM each time. Besides, the solubility at 24 h in series [2] (setting [5]) and in series [2] (setting [6]) was at least 10 µM each time. The half-life at 1 μM in series [3] and in series [4] was above 25 min in each case.
In the case of `CCn1cc(C(F)(F)F)nc1-c1c(F)cc(CN2C(=O)CCn3nc(-c4c(OC)ncnc4C4CC4)cc32)cc1OC` [Example 140], the IC50 (at USP1/UAF1 enzyme; in series [1]) was below 100 nM throughout. The solubility at 24 h in series [2] (setting [5]) was at least 10 µM; in series [2] (setting [6]), below 10 µM. The half-life at 1 μM in series [3] and in series [4] was above 25 min each time.
As to `CCn1cc(C(F)(F)F)nc1-c1ccc(CN2C(=O)C(NC)Cn3nc(-c4c(Cl)cnn4C(C)C)cc32)cc1` (stereo not drawn) [Example 236, 2-(4-chloro-1-isopropyl-1H-pyrazol-5-yl)-4-(4-(1-ethyl-4-(trifluoromethyl)-1H-imidazol-2-yl)benzyl)-6-(methylamino)-6,7-dihydropyrazolo[1,5-α]pyrimidin-5(4H)-one], the IC50 on USP1/UAF1 enzyme is 100 to 500 nM; in series [1], above 500 nM. For the same compound, the solubility at 24 h in series [2] (setting [5]) is at least 10 µM; in series [2] (setting [6]) it was below 10 µM. The half-life at 1 μM in series [3] and in series [4] was below 25 min in each case.

Source of the values: patent publication US20230219965A1 (KSQ Therapeutics, Inc., priority 2020, published 2023).
